Assay results from publication PMC12024474 (RSC Medicinal Chemistry, 2025).
Like-named read-outs stand apart in the source and are kept apart here. Where a SMILES comes first, the peptide text is derived from it. [ ]: non-standard residue; d: D form. Hmp(2R,3S) = CC[C@H](C)[C@@H](O)C(=O)O; Sta = CC(C)C[C@H](N)[C@@H](O)CC(=O)O; dNMeF = CN[C@H](Cc1ccccc1)C(=O)O; NMeQ = CN[C@@H](CCC(N)=O)C(=O)O

Experiments:
CatE = settings: cited from earlier work
MDA-MB-231 cells = assay: MTT cell viability assay; assay type: cell-based, human; settings: MDA-MB-231, 48 h treatment

Row | IC50 (cell viability) (MDA-MB-231 cells) [µg/mL] | Compound | preference for CatE compared to CatD (CatE) | preference for CatE compared to CatD (CatE; listed as grassystatin C) [fold]
1 |  | CC[C@H](C)[C@H](NC(=O)C[C@H](O)[C@H](CC(C)C)NC(=O)[C@H](CCC(N)=O)N(C)C(=O)[C@H](CC(C)C)NC(=O)[C@H](O)[C@@H](C)CC)C(=O)NCC(=O)N(C)[C@H](Cc1ccccc1)C(=O)N1CCC[C@H]1C(=O)OC [Grassystatin C, grassystatin C] ({Hmp(2R,3S)}-L[NMeQ][Sta]IG[dNMeF]P-OMe) | about 30 fold | > 30
2 | 0.025 | TRAIL: tumor necrosis factor-related apoptosis-inducing ligand |  | 
